Key:
[1] = Water proton relaxivity (longitudinal relaxation rate, 20 MHz); format: physicochemical
Method: The efficacy of a paramagnetic complex as a possible MRI contrast agent depends on its ability to catalyze the nuclear magnetic relaxation rate of solvent protons (Lauffer, R. B., Chem. Rev., 87, 901 (1987); Tweedle, M. F.; Kumar, K. In Magnetic Resonance Imaging (MRI) Contrast Agents; Clarke, M. I., Sadler, P. J., Eds.; Springer: Berlin, Germany, Vol. 2, p. 1 (1999); Koenig et al., Prog. NMR Spectrosc., 22:487 (1990)). This property, which is measured in terms in relaxivity, r1p, is defined as the enhancement of the water proton longitudinal relaxation rate induced by a 1 mML^−1 solution of the paramagnetic compound at a given temperature and magnetic field strength (Aime et al., Chem. Soc. Rev., 27:19 (1998)).
In an exemplary assay, the longitudinal water proton relaxation rate at 20 MHz are measured (typically with a NMR spectrometer operating at 0.5 T) with a reproducibility of the T1 data to ±0.5%. Equipment for the control of temperature (with an accuracy of ±0.1° C.) during these measurements are employed.
Water proton relaxation measurements were carried out at 20 MHz with a Stelar Spinmaster Spectrometer (Mede, Pv, Italy) on 0.5-2 mM solutions of the Gd(III) complex. Spin-lattice relaxation times T1 were measured by the standard inversion recovery method with typical 90° pulse width of […], 16 experiments of 4 scans. The reproducibility of the data is ±1%. The temperature was controlled by a Stelar VTC-91 air-flow heater equipped with copper-constantan thermocouple (uncertainty ±0.1° C). The 1/T1 nuclear magnetic relaxation dispersion (NMRD) profiles of water protons were measured from 0.00024 to 1.2 T (corresponding to the range 0.01-50 MHz of proton Larmor frequencies) at 15, 25 and 39° C. using 1.5 mM solutions of the complex on the field-cycling Koenig-Brown relaxometer of the University of Torino (Italy). The temperature was controlled by circulating freon from an external bath and measured by a thermometer inserted into the freon close to the sample. The reproducibilities of the measured T1 values were estimated to be ±2%. […]

[2] = biological target: human serum albumin (HSA) (Homo sapiens, UniProt P02768); assay: Binding to HSA by proton relaxation enhancement (PRE) method
Text: Biomolecule affinity measurements are generally measured by art-recognized methods. For example, the non-covalent interaction between HSA and the metal complexes containing hydrophobic groups have been thoroughly investigated using the well-established proton relaxation enhancement (PRE) method (Caravan, P. E. et al., Chem. Rev. 1999, 99, 2293) that allows both the binding parameters (Ka) and the relaxivity enhancement of the (Metal complex)-HSA adduct to be determined. In this method, the water proton relaxation rates of solutions containing the metal complex and increasing concentrations of the serum protein are measured. […]
The longitudinal relaxation rate (R1) of water protons in a […] solution of Gd-TREN-1-Me-3,2-HOPO-TAM-PEG-5000 was measured with increasing concentrations of HSA (FIG. 19) at 20 MHz and 25° C. […]
An objective of synthesizing the Bn and MOB chelates was to investigate their interaction with HSA. The non-covalent interaction between HSA and the Gd complexes was investigated using the well-established proton relaxation enhancement (PRE) method that allows both the binding parameters (KA) and the relaxivity enhancement of the (Gd^3+ complex)-HSA adduct to be determined. In this method, the water proton longitudinal relaxation rates (R1) of solutions containing the Gd complex and increasing concentrations of the serum protein are measured.

[3] = Variable temperature 17O NMR of water transverse relaxation rate (water exchange, q); format: physicochemical
Method: The mean residence water lifetime, τm, is generally determined by measuring the transverse ^17O NMR relaxation rate (R2p) at various temperatures. The variable-temperature ^17O NMR measurement is performed using spectrometers which operate at various magnetic field strengths (2.1 and 9.4 T are typically used) equipped with a 5 mm probe. A D2O external lock and solutions containing 2.6% of the ^17O isotope are used. The observed transverse relaxation rates are calculated from the signal width at half-height. […]
A variable temperature ^17O NMR study of the transverse relaxation rate of H2^17O (R2p) of Gd-TREN-1-Me-3,2-HOPO-TAM, Gd-TREN-1-Me-3,2-HOPO-TAM-PEG-2000 and Gd-TREN-1-Me-3,2-HOPO-TAM-PEG-5000 at 2.1 T was carried out. Analysis of the profiles also allows the number of coordinated water molecules, q to be evaluated. […]
The value of τm, was independently obtained by a variable temperature (VT) ^17O NMR measurement of the water nuclear transverse relaxation rate (R2). The data were measured at 2.1 T (90 MHz for the proton and 12 MHz for 170) and pH≈7. The curve was analyzed in terms of the well established equations of Swift-Connick, rearranged in a form suitable for Gd. […]
Variable-temperature ^17O NMR measurements were recorded on a JEOL EX-400 (9.4 T) spectrometer, equipped with a 5 mm probe, by using D20 for external lock of the magnetic field. […]

Chain of human serum albumin (HSA) (P02768 25-609): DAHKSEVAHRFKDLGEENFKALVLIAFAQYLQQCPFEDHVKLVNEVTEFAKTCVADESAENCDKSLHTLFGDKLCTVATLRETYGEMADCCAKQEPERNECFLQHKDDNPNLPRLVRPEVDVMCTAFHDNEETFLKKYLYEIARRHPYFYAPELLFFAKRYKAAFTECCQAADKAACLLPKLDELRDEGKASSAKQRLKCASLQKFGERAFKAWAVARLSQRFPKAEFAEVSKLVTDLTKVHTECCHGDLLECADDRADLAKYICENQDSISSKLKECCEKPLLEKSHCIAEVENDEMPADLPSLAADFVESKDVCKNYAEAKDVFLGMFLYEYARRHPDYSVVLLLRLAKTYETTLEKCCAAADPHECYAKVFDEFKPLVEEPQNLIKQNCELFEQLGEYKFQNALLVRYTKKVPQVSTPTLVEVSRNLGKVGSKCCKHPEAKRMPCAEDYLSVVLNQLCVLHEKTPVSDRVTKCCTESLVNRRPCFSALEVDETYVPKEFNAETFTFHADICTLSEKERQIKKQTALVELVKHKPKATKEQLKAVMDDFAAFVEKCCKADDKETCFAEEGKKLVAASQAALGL

O=C([O-])CN(CCN(CC(=O)[O-])CC(=O)O)CCN(CC(=O)[O-])CC(=O)O.[Gd+3] [Gd-DTPA]
r1p/mM^−1s^−1 (20 MHz) [1]: 4.3 mM⁻¹ s⁻¹ | KA (HSA)/M^−1 ([2]; HSA): <100 M⁻¹ | r1p^b/mM^−1s^−1 (HSA) ([2]; relaxivity of HSA-bound complex): 4.3 mM⁻¹ s⁻¹ | τM/ns [3]: 303 ns

— patent US7718781B2, “Hydroxypyridonate and hydroxypyrimidinone chelating agents” (The Regents of the University of California, priority 2001, dated 2010)
